Measurements as given in patent US20240059677A1, “SUBSTITUTED PYRIMIDINE DERIVATIVES AS NICOTINIC ACETYLCHOLINESTERASE RECEPTOR ALPHA 6 MODULATOR” (priority 2020, published 2024).
Where two headings read alike, the source gives them in different places.

Biological target: T1, human nAChRα6-α3 chimera, in addition to β2 and β3^V273S subunits (Homo sapiens, UniProt P32297+Q15825)
T1 construct: expressed in transfected cells
Assay: fluorescence-based calcium assay: inhibition of nicotine stimulated nAChRα6 activity (FLIPR)
Conditions: HEK cell line stably expressing the receptor, 10 min pre-incubation, nicotine EC80, 10-point curve, duplicate wells
Description: The ability of the test compounds to inhibit nicotine stimulated nAChRα6 activity was determined in a fluorescence-based calcium assay. Compound activity was determined using a HEK cell line stably expressing a human nAChRα6-α3 chimera, in addition to β2 and β3^V273S subunits (as in Capelli et al, Br J Pharmacol 163(2): 313-29 2011). In this cell line, nicotine stimulated an increase in intracellular calcium concentration, measured as an increase in fluorescence when cells were incubated with a calcium sensitive dye. Test compounds were pre-incubated with cells prior to nicotine stimulation to detect any reduction in the magnitude of the nicotine response.
The day prior to the assay, compounds were serially diluted in DMSO (200× final assay concentration (FAC)), in 384-well plates which were then stored in the dark at room temperature (RT) until use. Cells were seeded at 20 k/well in black, poly-D-lysine coated, clear bottom 384-well plates and incubated for 4 hours at 37° C., followed by overnight incubation at 30° C. The following day, the DMSO compound plate was diluted 1:20 (10×FAC) in assay buffer (HEPES buffered saline solution with 10 mM HEPES, 0.1% bovine serum albumin, 1 mM probenecid). A nicotine solution was prepared in assay buffer (7×FAC) and dispensed into a 384-well plate. The growth media was removed from the cell plate, replaced with 53 μl calcium dye/well (Calcium 5; Molecular Devices) and the plate incubated at 30° C. for 45 minutes. Test compounds were then added to the cells (7 μl of 10×FAC) and incubated for 10 minutes, after which nicotine EC80 (10 μl of 7×FAC) was added and changes in fluorescence measured using a FLIPR plate reader (Molecular Devices).
Compound activity was examined using a 10-point, half-log concentration-response range and each concentration was tested in duplicate wells.

T1 sequence (Q05901 25-458 V273S): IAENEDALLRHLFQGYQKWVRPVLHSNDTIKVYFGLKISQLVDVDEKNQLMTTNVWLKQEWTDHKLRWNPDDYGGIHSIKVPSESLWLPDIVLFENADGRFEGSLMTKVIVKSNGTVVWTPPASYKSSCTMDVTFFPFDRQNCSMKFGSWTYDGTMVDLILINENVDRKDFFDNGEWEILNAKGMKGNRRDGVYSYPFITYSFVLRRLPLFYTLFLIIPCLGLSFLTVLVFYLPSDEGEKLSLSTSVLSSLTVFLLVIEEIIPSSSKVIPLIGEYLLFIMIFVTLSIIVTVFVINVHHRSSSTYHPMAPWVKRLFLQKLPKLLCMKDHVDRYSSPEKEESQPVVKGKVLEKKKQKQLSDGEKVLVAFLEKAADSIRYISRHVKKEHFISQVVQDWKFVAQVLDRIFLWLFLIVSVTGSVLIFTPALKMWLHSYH
T1 sequence (P17787 26-502, stated change not applied, further chain): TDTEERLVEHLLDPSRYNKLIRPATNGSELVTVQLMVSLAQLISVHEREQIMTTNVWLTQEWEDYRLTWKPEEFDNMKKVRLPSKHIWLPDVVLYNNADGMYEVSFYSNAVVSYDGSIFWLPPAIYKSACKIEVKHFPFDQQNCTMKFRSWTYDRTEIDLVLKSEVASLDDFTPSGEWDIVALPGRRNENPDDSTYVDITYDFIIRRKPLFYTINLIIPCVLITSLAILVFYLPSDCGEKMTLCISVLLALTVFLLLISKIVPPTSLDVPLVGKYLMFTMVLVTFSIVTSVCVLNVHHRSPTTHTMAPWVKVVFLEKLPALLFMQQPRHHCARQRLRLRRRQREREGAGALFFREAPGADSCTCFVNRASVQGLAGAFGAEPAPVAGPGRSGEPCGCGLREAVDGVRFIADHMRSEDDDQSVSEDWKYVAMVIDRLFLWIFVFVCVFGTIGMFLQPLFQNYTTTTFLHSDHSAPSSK
T1 sequence (Q15825+P32297 fused with the stated changes): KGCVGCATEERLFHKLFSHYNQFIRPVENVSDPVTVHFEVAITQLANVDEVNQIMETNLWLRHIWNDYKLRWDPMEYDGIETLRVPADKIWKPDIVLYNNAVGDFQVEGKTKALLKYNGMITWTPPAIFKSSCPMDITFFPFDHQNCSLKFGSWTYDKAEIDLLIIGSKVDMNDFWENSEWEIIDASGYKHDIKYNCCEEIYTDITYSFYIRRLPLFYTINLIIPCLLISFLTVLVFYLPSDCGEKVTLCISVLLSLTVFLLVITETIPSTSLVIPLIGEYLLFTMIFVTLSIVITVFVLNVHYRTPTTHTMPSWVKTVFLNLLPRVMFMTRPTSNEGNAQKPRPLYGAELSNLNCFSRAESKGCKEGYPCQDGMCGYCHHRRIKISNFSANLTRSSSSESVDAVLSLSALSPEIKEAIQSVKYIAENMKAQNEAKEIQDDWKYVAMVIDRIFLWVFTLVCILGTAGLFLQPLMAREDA

SMILES	IC50 (read-out: IC50) [µM]	IC50 (IC50 (μM)) [µM]
Cc1nc(NCC[C@@H]2CCCN2C)ncc1-c1ccc(C(F)(F)F)cc1F [Example 106b, (S)-5-(2-fluoro-4-(trifluoromethyl)phenyl)-4-methyl-N-(2-(1-methylpyrrolidin-2-yl)ethyl)pyrimidin-2-amine]	0.138	
CCN1CCC[C@H]1CNc1ncc(-c2ccc(C(F)(F)F)cc2F)c(C)n1 [Example 105, (S)—N-((1-ethylpyrrolidin-2-yl)methyl)-5-(2-fluoro-4-(trifluoromethyl)phenyl)-4-methyl-pyrimidin-2-amine]	0.05	
Cc1nc(NC2CC(C)(C)NC(C)(C)C2)ncc1-c1ccc(C(F)(F)F)cc1F [Example 126, 5-(2-fluoro-4-(trifluoromethyl)phenyl)-4-methyl-N-(2,2,6,6-tetramethylpiperidin-4-yl)pyrimidin-2-amine]	0.259	
COc1ccc(-c2cnc(NCC3CCCCN3C)nc2C)c(Cl)c1 (stereo not drawn) [Example 35, 5-(2-chloro-4-methoxyphenyl)-4-methyl-N-((1-methylpiperidin-2-yl)methyl) pyrimidin-2-amine]		0.029
Cc1nc(NC2CCN3CCCC23)ncc1-c1ccc(OC(F)(F)F)cc1F (single isomer, unassigned) [Example 97b, N-(5-(2-fluoro-4-(trifluoromethoxy)phenyl)-4-methyl-pyrimidin-2-yl)hexahydro-1H-pyrrolizin-1-amine]	0.152	
COc1ccc(-c2nnc(NCC3CCCN3C)nc2C)c(F)c1 (racemic) [Example 18, 6-(2-fluoro-4-methoxyphenyl)-5-methyl-N-((1-methylpyrrolidin-2-yl)methyl)-1,2,4-triazin-3-amine]	0.526	
Cc1nc(NC(C)C2CCN(C)C2)ncc1-c1ccc(F)cc1F (single isomer, unassigned) [Example 64b, 5-(2,4-difluorophenyl)-4-methyl-N-(1-(1-methylpyrrolidin-3-yl)ethyl) pyrimidin-2-amine]	0.088	
Cc1nc(NC2CCN(C(C)C)C2)ncc1-c1ccc(F)cc1F (stereo not drawn) [Example 22, 5-(2,4-difluorophenyl)-N-(1-isopropylpyrrolidin-3-yl)-4-methyl-pyrimidin-2-amine]	0.05	
Cc1nc(NC[C@@H]2CN(C)CCO2)ncc1-c1ccc(C(F)(F)F)cc1F (single isomer, unassigned) [Example 108a]	0.086	
COc1ccc(-c2cnc(NCC3CCN(C)C3)nc2C#N)c(F)c1 (stereo not drawn) [Example 31, 5-(2-fluoro-4-methoxyphenyl)-2-(((1-methylpyrrolidin-3-yl)methyl)amino) pyrimidine-4-carbonitrile]	0.082	
Cc1nc(NCC2NCCC2(F)F)ncc1-c1ccc(F)cc1F (single isomer, unassigned) [Example 83a, 5-(2,4-difluorophenyl)-N-((3,3-difluoropyrrolidin-2-yl)methyl)-4-methyl-pyrimidin-2-amine]	1.15	
COc1ccc(F)c(-c2cnc(NCC3CCCCN3C)nc2C)c1 (stereo not drawn) [Example 33, 5-(2-fluoro-5-methoxyphenyl)-4-methyl-N-((1-methylpiperidin-2-yl)methyl) pyrimidin-2-amine]	0.045	
CN(C)C1CCCC(Nc2ncc(-c3ccc(F)cc3F)c(C#N)n2)C1 (single isomer, unassigned) [Example 59b, 5-(2,4-difluorophenyl)-2-((3-(dimethylamino)cyclohexyl)amino) pyrimidine-4-carbonitrile]	0.134	
Cc1nc(NCC2C(F)CCN2C)ncc1-c1ccc(F)cc1F (single isomer, unassigned) [Example 96a, 5-(2,4-difluorophenyl)-N-((3-fluoro-1-methylpyrrolidin-2-yl)methyl)-4-methyl-pyrimidin-2-amine]	0.151	
Cc1nc(NC(C)[C@H]2CCCN2C)ncc1-c1ccc(C(F)(F)F)cc1F (single isomer, unassigned) [Example 131b, 5-(2-fluoro-4-(trifluoromethyl)phenyl)-4-methyl-N-((1*S)-1-((2R)-1-methylpyrrolidin-2-yl)ethyl)pyrimidin-2-amine]	0.291	
Cc1nc(NC[C@H]2CCCNC2)ncc1-c1ccc(C(F)(F)F)cc1F [Example 127, (S)-5-(2-fluoro-4-(trifluoromethyl)phenyl)-4-methyl-N-(piperidin-3-ylmethyl)pyrimidin-2-amine]	0.119	
Cc1nc(N[C@H]2CCNC[C@@H]2F)ncc1-c1ccc(C(F)(F)F)cc1F [Example 124, 5-(2-fluoro-4-(trifluoromethyl)phenyl)-N-((3S,4S)-3-fluoropiperidin-4-yl)-4-methyl-pyrimidin-2-amine]	0.903	
Cc1nc(NC[C@]2(C)CCCN2)ncc1-c1ccc(C(F)(F)F)cc1F [Example 134, (S)-5-(2-fluoro-4-(trifluoromethyl)phenyl)-4-methyl-N-((2-methyl-pyrrolidin-2-yl)methyl)pyrimidin-2-amine]	0.101	
Cc1nc(N[C@H]2CCCC[C@@H]2N(C)C)ncc1-c1ccc(C(F)(F)F)cc1F [Example 109, (1S,2S)—N^1-(5-(2-fluoro-4-(trifluoromethyl)phenyl)-4-methyl-pyrimidin-2-yl)-N^2,N^2-dimethyl-cyclohexane-1,2-diamine]	0.096	
Cc1nc(NC(C)[C@@H]2CCCN2)ncc1-c1ccc(C(F)(F)F)cc1F (single isomer, unassigned) [Example 130b, 5-(2-fluoro-4-(trifluoromethyl)phenyl)-4-methyl-N-((1*S)-1-((2S)-pyrrolidin-2-yl)ethyl)pyrimidin-2-amine]	0.049	
Cc1nc(NC2CCCC(N(C)C)C2)nnc1-c1ccc(F)cc1F (single isomer, unassigned) [Example 39b, N^1-(6-(2,4-difluorophenyl)-5-methyl-1,2,4-triazin-3-yl)-N^3,N^3-dimethylcyclohexane-1,3-diamine]	0.901	
Cc1nc(NCC2CCCN2C)nnc1-c1ccc(F)cc1F (stereo not drawn) [Example 15, 6-(2,4-difluorophenyl)-5-methyl-N-((1-methylpyrrolidin-2-yl)methyl)-1,2,4-triazin-3-amine]	1.94	
COc1ccc(-c2cnc(NCC3CCCN(C)C3)nc2C)c(F)c1 (stereo not drawn) [Example 30, 5-(2-fluoro-4-methoxyphenyl)-4-methyl-N-((1-methylpiperidin-3-yl)methyl) pyrimidin-2-amine]	0.082	
Cc1nc(NCC2CCCN2)ncc1-c1ccc(F)cc1F (stereo not drawn) [Example 82, 5-(2,4-difluorophenyl)-4-methyl-N-(pyrrolidin-2-ylmethyl)pyrimidin-2-amine]	0.018	
Cc1nc(NC(C)[C@H]2CCCN2)ncc1-c1ccc(C(F)(F)F)cc1F (single isomer, unassigned) [Example 129b, 5-(2-fluoro-4-(trifluoromethyl)phenyl)-4-methyl-N-((1*S)-1-((2R)-pyrrolidin-2-yl)ethyl)pyrimidin-2-amine]	0.105	
Cc1nc(NCC2CCCCN2)ncc1-c1ccc(C(F)(F)F)cc1F (stereo not drawn) [Example 104, 5-(2-fluoro-4-(trifluoromethyl)phenyl)-4-methyl-N-(2-piperidinylmethyl) pyrimidin-2-amine]	0.027	
Cc1nc(NC2CCN3CCCC23)ncc1-c1ccc(OC(F)(F)F)cc1F (single isomer, unassigned) [Example 97d, N-(5-(2-fluoro-4-(trifluoromethoxy)phenyl)-4-methyl-pyrimidin-2-yl)hexahydro-1H-pyrrolizin-1-amine]	0.299	
